These results are taken from patent US20260297080A1, “BICYCLIC COMPOUNDS AS CDK INHIBITORS” (BeOne Medicines I GmbH, priority 2022, published 2026).

One may read the IC50 as the concentration at which inhibition is half-maximal. Low readings indicate inhibition by little substance, high ones a need for much substance.

One test addresses CDK1/Cyclin B1 (Homo sapiens, UniProt P06493). Briefly: CDK1/Cyclin B1 Biochemical Assay (TR-FRET), 0.015 mM ATP. The conditions noted are these: 0.15 μM Rb (Ser780)-biotin substrate, pH7.0, 60 min preincubation, 120 min reaction, room temperature. A digest of the protocol: (§1)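 Kinase preincubated with compound (0–10 μM) 60 min at room temperature, then reaction started with ATP and 0.15 μM Rb (Ser780)-biotin peptide and run 120 min in HEPES pH 7.0 buffer with 50 mM MgCl2. Phospho-Rb detected by Eu-cryptate anti-pRb(Ser780)/streptavidin-XL665 TR-FRET (665/620 nm ratio); IC50 from four-parameter logistic fit.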
For orientation: Time-resolved FRET reads energy transfer from a long-lived donor to a nearby acceptor.

For the next test, the target named is CDK2/Cyclin E1 (Homo sapiens, UniProt P24941). Nature of the test: CDK2/Cyclin E1 Biochemical Assay (TR-FRET), 0.060 mM ATP. Conditions: 0.15 μM Rb (Ser780)-biotin substrate, pH7.0, 60 min preincubation, 120 min reaction, room temperature. A digest of the protocol:
as §1

Chain of CDK1/Cyclin B1 (P06493 whole entry): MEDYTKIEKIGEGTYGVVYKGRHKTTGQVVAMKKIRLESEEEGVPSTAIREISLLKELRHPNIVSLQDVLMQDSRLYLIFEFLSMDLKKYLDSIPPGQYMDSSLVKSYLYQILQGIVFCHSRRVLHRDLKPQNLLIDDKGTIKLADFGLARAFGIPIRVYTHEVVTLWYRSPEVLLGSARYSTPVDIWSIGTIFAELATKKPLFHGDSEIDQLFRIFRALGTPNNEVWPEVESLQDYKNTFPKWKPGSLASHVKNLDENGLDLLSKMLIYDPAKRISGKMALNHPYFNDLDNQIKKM
Chain of CDK1/Cyclin B1 (P14635 whole entry partner): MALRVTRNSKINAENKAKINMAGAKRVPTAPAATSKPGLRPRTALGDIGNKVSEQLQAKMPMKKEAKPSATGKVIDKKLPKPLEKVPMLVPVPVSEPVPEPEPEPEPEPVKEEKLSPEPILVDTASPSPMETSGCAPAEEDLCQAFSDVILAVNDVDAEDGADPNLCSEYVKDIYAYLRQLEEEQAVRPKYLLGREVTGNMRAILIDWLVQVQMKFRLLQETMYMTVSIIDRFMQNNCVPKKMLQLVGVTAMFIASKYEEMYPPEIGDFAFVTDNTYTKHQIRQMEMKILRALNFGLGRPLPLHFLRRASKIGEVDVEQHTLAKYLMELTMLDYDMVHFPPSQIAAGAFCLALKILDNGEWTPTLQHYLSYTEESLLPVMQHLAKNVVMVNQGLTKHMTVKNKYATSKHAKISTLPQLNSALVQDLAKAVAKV

Take `CC(C)NC(=O)O[C@H]1CC[C@@H](c2cc(Nc3ccc4c(c3)C3(CCC3)S(=O)(=O)N4)n[nH]2)C1` (relative stereo) [Example 199, cis-3-(3-((2,2-dioxido-1H-spiro[benzo[c]isothiazole-3,1′-cyclobutan]-5-yl)amino)-1H-pyrazol-5-yl)cyclopentyl isopropylcarbamate]: the values for the IC50 against CDK1/Cyclin B1 and at CDK2/Cyclin E1 were 0.084 µM and 0.0055 µM, respectively.

For `CC(C)NC(=O)O[C@H]1CC[C@@H](c2cc(Nc3ccc4c(c3)C3(CC3)S(=O)(=O)N4)n[nH]2)C1` (relative stereo) [Example 200, cis-3-(3-((2,2-dioxido-1H-spiro[benzo[c]isothiazole-3, 1′-cyclopropan]-5-yl)amino)-1H-pyrazol-5-yl)cyclopentyl isopropylcarbamate], the IC50 on CDK1/Cyclin B1 is 0.075 µM; at CDK2/Cyclin E1, 0.0055 µM.

With `CC(C)NC(=O)O[C@H]1CC[C@@H](c2cc(Nc3ccc4c(c3)C3(CC3)S(=O)(=O)N4C)n[nH]2)C1` (relative stereo) [Example 201, cis-3-(3-((1-methyl-2,2-dioxido-1H-spiro[benzo[c]isothiazole-3,l′-cyclopropan]-5-yl)amino-1H-pyrazol-5-yl)cyclopentyl isopropylcarbamate], the IC50 against CDK1/Cyclin B1 is 0.13 µM; on CDK2/Cyclin E1 it was 0.011 µM.

In the case of `CC(C)NC(=O)O[C@H]1CC[C@@H](c2cc(Nc3ccc4c(c3)CS(=O)(=O)N4C(C)C)n[nH]2)C1` (relative stereo) [Example 202, cis-3-(3-((1-isopropyl-2,2-dioxido-1,3-dihydrobenzo[c]isothiazol-5-yl)amino)-1H-pyrazol-5-yl)cyclopentyl isopropylcarbamate], the results for the IC50 against CDK1/Cyclin B1 and at CDK2/Cyclin E1 were 0.098 µM and 0.0062 µM, respectively.

Turning to `CC(C)NC(=O)O[C@H]1CC[C@@H](c2cc(Nc3ccc4c(c3)CS(=O)(=O)N4C3CC3)n[nH]2)C1` (relative stereo) [Example 203, cis-3-(3-((1-cyclopropyl-2,2-dioxido-1,3-dihydrobenzo[c]isothiazol-5-yl)amino)-1H-pyrazol-5-yl)cyclopentyl isopropylcarbamate], the half-maximal inhibitory concentration (IC50) on CDK1/Cyclin B1 was 0.041 µM; against CDK2/Cyclin E1, 0.0054 µM.

With `COCCN1c2ccc(Nc3cc([C@@H]4CC[C@H](OC(=O)NC(C)C)C4)[nH]n3)cc2CS1(=O)=O` (relative stereo) [Example 204, cis-3-(3-((1-(2-methoxyethyl)-2,2-dioxido-1,3-dihydrobenzo[c]isothiazol-5-yl)amino)-1H-pyrazol-5-yl)cyclopentyl isopropylcarbamate], the figures for the half-inhibitory concentration (IC50) against CDK1/Cyclin B1 and against CDK2/Cyclin E1 were 0.051 µM and 0.0018 µM, respectively.

With `CC(C)NC(=O)O[C@H]1CC[C@@H](c2cc(Nc3ccc4c(c3)CS(=O)(=O)N4CC(F)(F)F)n[nH]2)C1` (relative stereo) [Example 205, cis-3-(3-((2,2-dioxido-1-(2,2,2-trifluoroethyl)-1,3-dihydrobenzo[c]isothiazol-5-yl)amino)-1H-pyrazol-5-yl)cyclopentyl isopropylcarbamate], the IC50 amounted to 0.041 µM against CDK1/Cyclin B1 and 0.0075 µM on CDK2/Cyclin E1.

On to `[2H]C([2H])([2H])N1c2ccc(Nc3cc([C@@H]4CC[C@H](OC(=O)NC(C)C)C4)[nH]n3)cc2CS1(=O)=O` (relative stereo) [Example 206, cis-3-(3-((1-(methyl-d3)-2,2-dioxido-1,3-dihydrobenzo[c]isothiazol-5-yl)amino)-1H-pyrazol-5-yl)cyclopentyl isopropylcarbamate], for which the IC50 at CDK1/Cyclin B1 came to 0.063 µM; against CDK2/Cyclin E1, 0.0064 µM.

In the case of `CC(C)NC(=O)O[C@H]1CC[C@@H](c2cc(Nc3ccc4c(c3)C(C)S(=O)(=O)N4C)n[nH]2)C1` (relative stereo) [Example 207, cis-3-(3-((1,3-dimethyl-2,2-dioxido-1,3-dihydrobenzo[c]isothiazol-5-yl)amino)-1H-pyrazol-5-yl)cyclopentyl isopropylcarbamate], the IC50 worked out at 0.035 µM against CDK1/Cyclin B1 and 0.0066 µM on CDK2/Cyclin E1.

`CC(C)NC(=O)O[C@H]1CC[C@@H](c2cc(Nc3ccc4c(c3)CS(=O)(=O)N4C(C)C3COC3)n[nH]2)C1` (relative stereo) [Example 208, cis-3-(3-((1-(1-(oxetan-3-yl)ethyl)-2,2-dioxido-1,3-dihydrobenzo[c]isothiazol-5-yl)amino)-1H-pyrazol-5-yl)cyclopentyl isopropylcarbamate]: the IC50 at CDK1/Cyclin B1 is 0.262 µM; at CDK2/Cyclin E1, 0.016 µM.

Take `CC(C)NC(=O)O[C@H]1CC[C@@H](c2cc(Nc3ccc4c(c3)CS(=O)(=O)N4C3COC3)n[nH]2)C1` (relative stereo) [Example 209, cis-3-(3-((1-(oxetan-3-yl)-2,2-dioxido-1,3-dihydrobenzo[c]isothiazol-5-yl)amino)-1H-pyrazol-5-yl)cyclopentyl isopropylcarbamate]: the IC50 against CDK1/Cyclin B1 came out at 0.037 µM; at CDK2/Cyclin E1, 0.0054 µM.

For the compound `CC(C)NC(=O)O[C@H]1CC[C@@H](c2cc(Nc3ccc4c(c3)CS(=O)(=O)N4CC3COC3)n[nH]2)C1` (relative stereo) [Example 210, cis-3-(3-((1-(oxetan-3-ylmethyl)-2,2-dioxido-1,3-dihydrobenzo[c]isothiazol-5-yl)amino)-1H-pyrazol-5-yl)cyclopentyl isopropylcarbamate], the IC50 was 0.04 µM at CDK1/Cyclin B1 and 0.0021 µM against CDK2/Cyclin E1.

As to `CC(C)NC(=O)O[C@H]1CC[C@@H](c2cc(Nc3ccc4c(c3)CS(=O)(=O)N4CC3CCC3)n[nH]2)C1` (relative stereo) [Example 211, cis-3-(3-((1-(cyclobutylmethyl)-2,2-dioxido-1,3-dihydrobenzo[c]isothiazol-5-yl)amino)-1H-pyrazol-5-yl)cyclopentyl isopropylcarbamate], the IC50 against CDK1/Cyclin B1 was 0.197 µM; against CDK2/Cyclin E1 it was 0.0084 µM.

For `CC(C)NC(=O)O[C@H]1CC[C@@H](c2cc(Nc3ccc4c(c3)CS(=O)(=O)N4CCN3CCOCC3)n[nH]2)C1` (relative stereo) [Example 212, cis-3-(3-((1-(2-morpholinoethyl)-2,2-dioxido-1,3-dihydrobenzo[c]isothiazol-5-yl)amino)-1H-pyrazol-5-yl)cyclopentyl isopropylcarbamate], the IC50 was found to be 0.06 µM on CDK1/Cyclin B1 and 0.0035 µM on CDK2/Cyclin E1.

As to `CC(C)NC(=O)O[C@H]1CC[C@@H](c2cc(Nc3ccc4c(c3)CS(=O)(=O)N4CC3CN(C)C3)n[nH]2)C1` (relative stereo) [Example 213, cis-3-(3-((1-((1-methylazetidin-3-yl)methyl)-2,2-dioxido-1,3-dihydrobenzo[c]isothiazol-5-yl)amino)-1H-pyrazol-5-yl)cyclopentyl isopropylcarbamate], the IC50 on CDK1/Cyclin B1 was 0.03 µM; against CDK2/Cyclin E1, 0.0027 µM.

As for `CC(=O)N1CC(CN2c3ccc(Nc4cc([C@@H]5CC[C@H](OC(=O)NC(C)C)C5)[nH]n4)cc3CS2(=O)=O)C1` (relative stereo) [Example 214, cis-3-(3-((1-((1-acetylazetidin-3-yl)methyl)-2,2-dioxido-1,3-dihydrobenzo[c]isothiazol-5-yl)amino)-1H-pyrazol-5-yl)cyclopentyl isopropylcarbamate], the IC50 against CDK1/Cyclin B1 was 0.044 µM; against CDK2/Cyclin E1 it was 0.0017 µM.

As for `CC(C)NC(=O)O[C@H]1CC[C@@H](c2cc(Nc3ccc4c(c3)CS(=O)(=O)N4CCCO)n[nH]2)C1` (relative stereo) [Example 215, cis-3-(3-((1-(3-hydroxypropyl)-2,2-dioxido-1,3-dihydrobenzo[c]isothiazol-5-yl)amino)-1H-pyrazol-5-yl)cyclopentyl isopropylcarbamate], the figures for the IC50 at CDK1/Cyclin B1 and on CDK2/Cyclin E1 were 0.03 µM and 0.0031 µM, respectively.

For `CC(C)NC(=O)O[C@H]1CC[C@@H](c2cc(Nc3ccc4c(c3)CS(=O)(=O)N4CC(C)(C)O)n[nH]2)C1` (relative stereo) [Example 216, cis-3-(3-((1-(2-hydroxy-2-methylpropyl)-2,2-dioxido-1,3-dihydrobenzo[c]isothiazol-5-yl)amino)-1H-pyrazol-5-yl)cyclopentyl isopropylcarbamate], the IC50 against CDK1/Cyclin B1 stood at 0.054 µM; at CDK2/Cyclin E1 it was 0.0078 µM.

As for `CC(C)NC(=O)O[C@H]1CC[C@@H](c2cc(Nc3ccc4c(c3)CS(=O)(=O)N4CCC3CCOCC3)n[nH]2)C1` (relative stereo) [Example 217, cis-3-(3-((2,2-dioxido-1-(2-(tetrahydro-2H-pyran-4-yl)ethyl)-1,3-dihydrobenzo[c]isothiazol-5-yl)amino)-1H-pyrazol-5-yl)cyclopentyl isopropylcarbamate], the IC50 was found to be 0.126 µM against CDK1/Cyclin B1 and 0.0088 µM against CDK2/Cyclin E1.

Take `CC(C)NC(=O)O[C@H]1CC[C@@H](c2cc(Nc3ccc4c(c3)CS(=O)(=O)N4C(C)C3CCOC3)n[nH]2)C1` (relative stereo) [Example 218, cis-3-(3-((2,2-dioxido-1-(1-(tetrahydrofuran-3-yl)ethyl)-1,3-dihydrobenzo[c]isothiazol-5-yl)amino)-1H-pyrazol-5-yl)cyclopentyl isopropylcarbamate]: the IC50 against CDK1/Cyclin B1 was 0.999 µM; against CDK2/Cyclin E1, 0.112 µM.

Take `CCCNC(=O)O[C@H]1CC[C@@H](c2cc(Nc3ccc4c(c3)CS(=O)(=O)N4C)n[nH]2)C1` (relative stereo) [Example 221, cis-3-(3-((1-methyl-2,2-dioxido-1,3-dihydrobenzo[c]isothiazol-5-yl)amino)-1H-pyrazol-5-yl)cyclopentyl propylcarbamate]: the results for the IC50 at CDK1/Cyclin B1 and at CDK2/Cyclin E1 were 0.049 µM and 0.0086 µM, respectively.

Consider `CC[C@H](C)NC(=O)O[C@H]1CC[C@@H](c2cc(Nc3ccc4c(c3)CS(=O)(=O)N4C)n[nH]2)C1` (relative stereo) [Example 222, cis-3-(3-((1-methyl-2,2-dioxido-1,3-dihydrobenzo[c]isothiazol-5-yl)amino)-1H-pyrazol-5-yl)cyclopentyl((S)-sec-butyl)carbamate], for which the results for the IC50 on CDK1/Cyclin B1 and against CDK2/Cyclin E1 were 0.048 µM and 0.005 µM, respectively.
